Where two headings read alike, the source gives them in different places. Each block holds one compound with its values, some of them ahead of it.
Experiments:
[1] = cited from earlier work
[2] = Pharmacokinetic analyses in NOD/SCID mice; assay type: in vivo
[3] = test system: ccRCC tumorgraft lines; test: Drug trials in subcutaneous ccRCC tumorgraft lines; assay type: in vivo, NOD/SCID mice; conditions: 4 ccRCC tumorgraft lines; dovitinib 30 mg/kg by gavage
[4] = test system: TG144 tumorgraft-bearing mice; test: Serum calcium; assay type: in vivo, NOD/SCID mice; conditions: TG144, end of trial
[5] = test system: papillary RCC tumorgraft line (TG121); test: Drug trial in papillary RCC tumorgraft line TG121; assay type: in vivo, NOD/SCID mice; conditions: dovitinib 30 mg/kg by gavage
[6] = test system: ccRCC; conditions: patients with ccRCC, randomized phase II trial; cited from earlier work
[7] = test system: NSCLC cell line-derived xenograft; test: NSCLC; assay type: in vivo, mice; conditions: same erlotinib regimen (12.5 mg/kg by gavage every 12 h)

SMILES: CO[C@H]1C[C@@H]2CC[C@@H](C)[C@@](O)(O2)C(=O)C(=O)N2CCCC[C@H]2C(=O)O[C@H]([C@H](C)C[C@@H]2CC[C@@H](OCCO)[C@H](OC)C2)CC(=O)[C@H](C)/C=C(\C)[C@@H](O)[C@@H](OC)C(=O)[C@H](C)C[C@H](C)/C=C/C=C/C=C/1C [Everolimus]
Cmin ([1]; human, 10 mg PO qd, analyte Everolimus, mean ± SD, ref Awada et al., 2008): 13.2 ± 7.2 ng/mL

metabolite as share of total circulating drug ([2]; NOD/SCID mice, day 1, after sunitinib): 38%
SMILES: CCNCCNC(=O)c1c(C)[nH]c(/C=C2\C(=O)Nc3ccc(F)cc32)c1C [desethyl sunitinib]
metabolite as share of total circulating drug ([1]; humans, day 1, after sunitinib, ref Table 6): 13%

peak and overall exposures compared with humans ([2]; dovitinib 30 mg/kg daily by gavage, mice): within the range reported in humans
SMILES: CN1CCN(c2ccc3nc(-c4c(N)c5c(F)cccc5[nH]c4=O)[nH]c3c2)CC1 [dovitinib]
effect on ccRCC tumorgraft growth [3]: profoundly suppressed | effect on paraneoplastic hypercalcemia (serum calcium) [4]: inhibited the development of paraneoplastic hypercalcemia | Terminal t1/2 ([1]; human, 500 mg PO qd, PK data at (D15), analyte Dovitinib, ref Kim, et al 2011): 21 h | activity in papillary RCC tumorgraft line [5]: very active

peak and overall exposures compared with humans ([2]; erlotinib 12.5 mg/kg by gavage every 12 h, mice): higher
SMILES: C#Cc1cccc(Nc2ncnc3cc(OCCOC)c(OCCOC)cc23)c1 [erlotinib]
outcomes in combination with bevacizumab vs bevacizumab alone [6]: failed to show improved outcomes | half-life ([1]; humans): 24 h | effect on NSCLC cell line-derived xenograft growth [7]: profound effect

peak and overall exposures, fold higher than in humans ([2]; sirolimus 0.5 mg/kg intraperitoneally every 48 h, NOD/SCID mice vs humans): 2-3 fold
SMILES: CO[C@H]1C[C@@H]2CC[C@@H](C)[C@@](O)(O2)C(=O)C(=O)N2CCCC[C@H]2C(=O)O[C@H]([C@H](C)C[C@@H]2CC[C@@H](O)[C@H](OC)C2)CC(=O)[C@H](C)/C=C(\C)[C@@H](O)[C@@H](OC)C(=O)[C@H](C)C[C@H](C)/C=C/C=C/C=C/1C [sirolimus]
share of circulating drug after temsirolimus administration ([1]; humans, after temsirolimus administration): 75% | therapeutic range (trough levels) in humans ([1]; humans): 5 to 15 ng/mL

peak exposures compared with humans ([2]; sunitinib 10 mg/kg by gavage every 12 h, mice): slightly higher than in humans | half-life compared with humans ([2]; sunitinib, mice vs humans): much shorter in mice
SMILES: CCN(CC)CCNC(=O)c1c(C)[nH]c(/C=C2\C(=O)Nc3ccc(F)cc32)c1C [sunitinib]
